Literature values, collected in patent US20230321590A1, “AQUEOUS LIQUID SORBENT” (COMPACT CARBON CAPTURE AS, priority 2020, published 2023).

Details: literature values

SMILES	Reaction rate constant at 25° C. [m^3kmol^−1s^−1]
CC(C)(N)CO [2-amino-2-methyl-1-propanol (AMP), 2-amino-2-methyl-1-propanol]	810
OCCNCCO [Diethanolamine (DEA), Diethanolamine]	2375
NCCOCCO [Diglycolamine (DGA), Diglycolamine]	6663
CC(O)CNCC(C)O (stereo not drawn) [Diisopropanolamine (DIPA), Diisopropanolamine]	2585
NCCO [Monoethanolamine (MEA), Monoethanolamine]	7000
C1CNCCN1 [Piperazine]	53700
